Literature values in patent publication US20030165581A1, “Compositions for treating diabetes mellitus, methods of use and manufacturing process of the same” (priority 2002, published 2003).
Read-outs that look alike come from different tables or passages of the source.

Assays:
[1] = tested on: Ehrlich ascites tumor cells; conditions: time course of glucose uptake
[2] = tested on: subjects with mild Type II diabetes; conditions: for drop of average blood glucose level compared to placebo: dry powder base, two-piece hard gelatin capsule; for drop of average blood glucose level: oil based soft gelatin capsule, two weeks
[3] = tested on: hereditary Type II diabetic mice
mice = conditions: oral dose
[4] = tested on: rats with experimentally induced diabetes; conditions: reduced from 300 mg/dL
[5] = tested on: human subjects with mild Type II diabetes
[6] = tested on: subjects with mild Type II diabetes; conditions: for average blood glucose level: soft gelatin formulation, 48 mg daily, control 168.3
Type II diabetic rats = conditions: supplementation with corosolic acid; control group showed elevation
[7] = supplemented with corosolic acid

C[C@H]1[C@H](C)CC[C@]2(C(=O)O)CC[C@]3(C)C(=CC[C@@H]4[C@@]5(C)C[C@@H](O)[C@H](O)C(C)(C)[C@@H]5CC[C@]43C)[C@H]12 [corosolic acid]
glucose transport-stimulating activity (glucose uptake by Ehrlich cells) [1]: significant glucose transport-stimulating activity
time of peak reduction after administration (normal rabbits; after large doses): two to four
blood sugar reduction (normal rabbits; large doses): more than 57 mg per 100 mL blood
time blood sugar remained low (normal rabbits; repetition of the first dose after two more hours): more than 5 hours
drop of average blood glucose level compared to placebo ([2]; 16 mg per day): 3.18%
drop of average blood glucose level compared to placebo ([2]; 32 mg per day): 6.5%
drop of average blood glucose level compared to placebo ([2]; 48 mg per day): 20.2%
drop of average blood glucose level ([2]; 16 mg per day): 4.9%
drop of average blood glucose level ([2]; 32 mg per day): 10.7%
drop of average blood glucose level ([2]; 48 mg per day): 31.9%
increase of plasma glucose levels ([3]; diet including corosolic acid for five weeks vs control diet): completely suppressed
level of serum insulin [3, 7]: lowered
total plasma cholesterol [3, 7]: lowered
urinary excreted glucose [3, 7]: lowered
blood sugar levels (mice): reduces blood sugar levels
blood sugar level after corosolic acid [4]: 150 mg/dL
adverse effects ([5]; short-term (four weeks) treatment): no signs of adverse effects
blood glucose levels ([5]; tablet after each meal three times daily, four weeks, vs placebo): effective in reducing blood glucose levels
blood glucose level during washout ([6]; 15 days of washout after soft gelatin treatment): 131.7 mg/dL
blood glucose level during washout ([6]; 30 days of washout after soft gelatin treatment): 153.2 mg/dL
blood glucose level during washout ([6]; 45 days of washout after soft gelatin treatment): 168.2 mg/dL
decline in blood glucose levels after a meal ([6]; compared to untreated (diabetic) control conditions): sharper decline
weight loss ([6]; dry-powder based formulation): no weight loss
average weight loss ([6]; oil-based formulation in a soft gelatin capsule): 3.2 pounds
adverse effects ([6]; oral dose, cross-over study): no signs of adverse effects
average blood glucose level ([6]; 15th day of treatment): 127.2 mg/deciliter
average blood glucose level ([6]; 30th day of treatment): 115.1 mg/deciliter
memory effect after termination of the treatment ([6]; washout period blood glucose levels): up to four
glucose levels (Type II diabetic rats): decrease in glucose levels
